Data taken from patent publication US20200393397A1, “DEVICE FOR PERFORMING ELECTRICAL MEASUREMENTS” (Mimetas B.V., priority 2018, published 2020).

System: Caco-2 tubules
Test: TEER measurement of Caco-2 tubules in 2-lane Organoplate during staurosporine exposure
Assay type: cell-based, human
Method: Day 0: Collagen-1 gel was injected into one of the channels (gel channel) of a 2-lane Organoplate. After curing of the gel, Caco-2 cells (Sigma, human colon carcinoma cells) in culture medium were seeded in the other channel (perfusion channel) and allowed to proliferate. Culture medium was refreshed daily. […] Following this protocol, 40 chips, comprising a gel channel and a perfusion channel separated by a phaseguide, were seeded with Caco-2 cells, meaning that 40 tubules were grown simultaneously in a single 2-lane Organoplate. The method of culturing cells in this system is similar to the one described by Trietsch et al (Nature Communications, volume 8, Article number: 262(2017), doi:10.1038/s41467-017-00259-3).
A TEER measurement was performed daily at days 1 to 11. To this end, gold plated electrodes were inserted into the access wells of the gel and perfusion channel. For 5 to 10 seconds per chip, impedance spectra were recorded at frequencies ranging logarithmically from 10 Hz to 1 MHz.
At day 5, the 40 Caco-2 tubules were exposed to different concentrations of staurosporine (Sigma, S4400) for 12 hours.

Compound: CN[C@@H]1C[C@H]2O[C@@](C)([C@@H]1OC)n1c3ccccc3c3c4c(c5c6ccccc6n2c5c31)C(=O)NC4 [staurosporine]
- effect on the TEER (day 5, concentration of 47 nM, 12 hours exposure (FIG. 8)): an effect on the TEER can be observed
- effect on the TEER values (day 5, exposure to different concentrations for 12 hours (FIG. 8)): concentration dependent effect
